B1: BDNF: brain-derived neurotrophic factor (protein, UniProt P23560 19-247, looked up)
Neurotrophic factor BDNF …: APMKEANIRGQGGLAYPGVRTHGTLESVNGPKAGSRGLTSLADTFEHVIEELLDEDQKVRPNEENNKDADLYTSRVMLSSQVPLEPPLLFLLEEYKNYLDAANMSMRVRRHSDPARRGELSVCDSISEWVTAADKKTAVDMSGGTVTVLEKVPVSKGQLKQYFYETKCNPMGYTKEGCRGIDKRHWNSQCRTTQSYVRALTMDSKKRIGWRFIRIDTSCVCTLTIKRGR

Columns and labels:
[1] = tested on: primary rat E14 VM tissue; assay: Anti-Thy-1 directed BDNF or 7,8-DHF nanoparticles versus free factor in primary rat E14 VM cultures; type: cell-based; conditions: 7 days in vitro
Method: To compare the effect of brain-derived neurotrophic factor (BDNF), or the BDNF agonist 7,8-dihydroxy flavone (7,8-DHF), when in a nano-particulate formulation targeted to Thy-1, versus free, primary rat E14 VM tissue was mixed with 100 μl of nanoparticle solution (0.05 mg; 0.1 mg; 1.0 mg nanoparticles/ml), or with free growth factor (10 nM; 100 nM; 1 μM; 10 μM) immediately prior to plating. After first confirming presence of Thy-1 antigen on the surface of TH+ neurons (data not shown), anti-Thy-1 decorated nanoparticles were prepared as either empty; or BDNF-nanoparticles; or 7,8 DHF-nanoparticles. Cultures were fixed after 7 days in vitro and analysed via immunocytochemistry for tyrosine hydroxylase positive cells. […] This is shown for 7,8 DHF-nanoparticles in FIG. 11A and FIG. 11B where the dose-response curve is similar to that reported by Jang et al (Jang et al, Proc. Natl. Acad. Sci. USA, 2010), with the exception of the high dose (10 μM) decline observed here.

[2] = tested on: dopaminergic neurons in E14 VM cultures; assay: LIF treatment during dissociation of E14 VM tissue, TH+ neuron count in monolayer culture; type: cell-based, rat; conditions: tissue dissociated in 0.1 ng/ml LIF
Method: The VM of E14 rat foetuses was dissected and dissociated in medium with or without 0.1 ng/ml soluble LIF. The tissue was then plated in monolayer culture and grown for 2, 3 or 5 days prior to fixing. Dissociated cells were seeded in monolayer cultures and fixed after 2, 3 or 5 days in vitro (DIV).

[3] = tested on: dopaminergic neurons in E14 VM cultures; assay: Growth medium supplemented with soluble LIF, TH+ neuron count in E14 VM cultures; type: cell-based, rat
Method: The VM of E14 rat foetuses was dissected and dissociated in standard conditions. Primary E14 VM tissue was dissociated and grown as monolayer cultures. After plating cells were chronically treated with soluble LIF in their growth medium ranging from 0.1 ng/ml to 100 ng/ml.

[4] = tested on: E14 VM neural progenitor cells; assay: E14 VM neurosphere expansion with soluble LIF, subsequent differentiation in monolayer culture; type: cell-based, rat; conditions: 0.1 ng/ml LIF during neurosphere expansion; monolayer without LIF
Method: To investigate the effect of LIF treatment on the differentiation of E14 VM, tissue was grown as neurospheres in expansion medium with or without 0.1 ng/ml soluble LIF. Primary ventral midbrain tissue was expanded in medium containing the mitogens EGF and FGF-2 for 5 days. These neurospheres were then dissociated into single cells and plated in monolayer culture in the absence of LIF. After 5 days of growth these cultures were analysed via immunocytochemistry for neural and astroglial differentiation (FIGS. 6A and 6B, showing morphology + or − LIF). The presence of LIF during the expansion of E14 VM had no effect on subsequent differentiation (FIG. 7 showing results after 5 and 10 days).

[5] = tested on: dopaminergic neurons in E14 VM cultures; assay: Dopaminergic apoptosis (TH, cleaved caspase-3, condensed nucleus) in E14 VM monolayer cultures; type: cell-based, rat
Method: A subset of tyrosine hydroxylase neurons co-localised with cleaved caspase-3 and a condensed nucleus, both markers of apoptotic cells. […] Immunocytochemical analysis was performed to determine whether LIF treatment (soluble or targeted nanoparticles) decreased the number of apoptotic dopaminergic neurons in these cultures.
E14 VM monolayer cultures, treated with soluble LIF or LIF/empty nanoparticles were fixed after 2, 3 or 5 days.

Molecule	longest neurite length [1]	number of primary neurites [1]	serotonergic cells versus dopaminergic cells [1]	number of TH+ neurons ([2]; 3 and 5 days in vitro)	number of TH+ neurons ([2]; 2 days in vitro)	number of TH positive neurons ([3]; all LIF dosages above 0.1 ng/ml (up to 100 ng/ml))	number of tyrosine hydroxylase positive neurons ([3]; growth medium with 0.1 ng/ml LIF, 3 and 5 days in vitro)	subsequent neural and astroglial differentiation [4]	level of dopaminergic apoptosis ([5]; 2 days in vitro)	dopaminergic apoptosis ([5]; 3 days in vitro)
O=c1cc(-c2ccccc2)oc2c(O)c(O)ccc12 [7,8-DHF, 7,8-dihydroxy flavone, reference compound]	neither soluble 7,8-DHF nor 7,8-DHF-nano altered	neither soluble 7,8-DHF nor 7,8-DHF-nano altered	constant ratio							
LIF: leukaemia inhibitory factor, member of the IL-6 family of cytokines, used soluble in medium				effect was lost	significantly more	no significant effect	significantly increase	no effect	significant reduction	did not reach statistical significance
B1	significant increase	significant increase	constant ratio							
